A short description of assay [1]: Inhibitory activity against aggrecanase was determined.
The target in assay [2] is Matrix metalloproteinase-9 (Homo sapiens, UniProt P14780). Nature of the assay: Binding affinity for human gelatinase B (MMP-9).
Assay [3] addresses 72 kDa type IV collagenase (Homo sapiens, UniProt P08253). Kind of assay: Binding affinity for human gelatinase A (MMP-2).
The next assay concerns the target T1, Interstitial collagenase (Homo sapiens, UniProt P03956).
T1 sequence (P03956 whole entry): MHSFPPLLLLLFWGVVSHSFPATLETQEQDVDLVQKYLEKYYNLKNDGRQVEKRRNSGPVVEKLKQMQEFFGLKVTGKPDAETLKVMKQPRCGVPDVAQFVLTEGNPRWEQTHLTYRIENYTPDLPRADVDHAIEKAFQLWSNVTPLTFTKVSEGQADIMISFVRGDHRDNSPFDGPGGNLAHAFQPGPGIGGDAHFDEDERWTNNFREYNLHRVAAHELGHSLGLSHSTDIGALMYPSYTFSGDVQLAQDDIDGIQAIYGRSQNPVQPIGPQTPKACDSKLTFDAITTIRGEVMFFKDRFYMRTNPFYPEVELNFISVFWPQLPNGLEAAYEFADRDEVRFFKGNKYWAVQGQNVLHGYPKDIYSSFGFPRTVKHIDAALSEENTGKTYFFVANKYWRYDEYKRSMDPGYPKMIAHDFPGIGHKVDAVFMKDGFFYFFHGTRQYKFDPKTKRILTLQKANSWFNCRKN
Nature of the assay: Binding affinity for interstitial collagenase (MMP-1).

The values below come from ChEMBL document CHEMBL1135085, “Potent P1' biphenylmethyl substituted aggrecanase inhibitors” (Bioorg Med Chem Lett, 2002).

Structures are written as SMILES. Some results are limits rather than exact numbers.

72 kDa type IV collagenase, sequence (P08253 whole entry): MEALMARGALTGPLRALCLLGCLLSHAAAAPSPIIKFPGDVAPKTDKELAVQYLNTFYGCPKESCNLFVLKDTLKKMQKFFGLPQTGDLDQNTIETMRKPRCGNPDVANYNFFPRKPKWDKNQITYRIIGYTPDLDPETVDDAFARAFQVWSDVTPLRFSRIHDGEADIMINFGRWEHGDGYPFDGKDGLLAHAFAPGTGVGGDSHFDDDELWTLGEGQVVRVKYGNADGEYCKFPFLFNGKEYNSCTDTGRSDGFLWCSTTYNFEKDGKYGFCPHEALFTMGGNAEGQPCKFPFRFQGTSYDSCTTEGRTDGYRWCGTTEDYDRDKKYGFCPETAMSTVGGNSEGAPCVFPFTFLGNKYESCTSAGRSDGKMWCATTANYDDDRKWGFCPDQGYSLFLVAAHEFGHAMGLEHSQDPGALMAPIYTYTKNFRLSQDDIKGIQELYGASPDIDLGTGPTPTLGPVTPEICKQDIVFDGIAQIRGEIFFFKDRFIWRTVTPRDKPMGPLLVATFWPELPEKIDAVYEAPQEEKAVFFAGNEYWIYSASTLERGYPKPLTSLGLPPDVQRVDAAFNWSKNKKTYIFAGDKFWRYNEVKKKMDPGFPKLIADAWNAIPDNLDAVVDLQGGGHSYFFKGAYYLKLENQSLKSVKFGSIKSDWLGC
Matrix metalloproteinase-9, sequence (P14780 whole entry): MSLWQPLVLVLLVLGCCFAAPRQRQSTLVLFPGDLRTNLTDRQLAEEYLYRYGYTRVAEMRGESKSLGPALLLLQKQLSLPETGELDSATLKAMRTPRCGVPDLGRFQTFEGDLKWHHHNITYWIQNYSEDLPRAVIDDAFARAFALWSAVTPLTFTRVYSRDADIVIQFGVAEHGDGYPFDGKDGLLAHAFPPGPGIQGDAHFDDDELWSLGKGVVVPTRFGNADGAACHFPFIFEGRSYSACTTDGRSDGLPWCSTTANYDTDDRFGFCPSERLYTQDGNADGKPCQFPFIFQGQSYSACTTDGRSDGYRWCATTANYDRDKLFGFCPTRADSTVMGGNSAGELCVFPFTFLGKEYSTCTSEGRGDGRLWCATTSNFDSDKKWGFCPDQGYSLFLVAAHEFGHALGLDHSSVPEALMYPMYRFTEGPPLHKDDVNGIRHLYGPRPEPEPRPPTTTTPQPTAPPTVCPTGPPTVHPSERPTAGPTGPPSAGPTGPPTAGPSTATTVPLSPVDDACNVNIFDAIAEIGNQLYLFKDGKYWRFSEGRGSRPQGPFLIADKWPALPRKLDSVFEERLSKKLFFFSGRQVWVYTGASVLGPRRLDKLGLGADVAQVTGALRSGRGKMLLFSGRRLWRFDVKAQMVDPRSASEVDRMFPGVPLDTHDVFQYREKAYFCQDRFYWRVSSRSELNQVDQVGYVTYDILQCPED

Consider `CS(=O)(=O)Nc1cccc(-c2ccc(C[C@H](CC(=O)NO)C(=O)N[C@H]3c4ccccc4C[C@H]3O)cc2)c1`, for which the IC50 in assay [1] is 1.5 nM. This counts as single-digit nanomolar.

For `O=C(C[C@@H](Cc1ccc(-c2ccccc2)cc1)C(=O)N[C@H]1c2ccccc2C[C@H]1O)NO`, the results for the Ki (in assay [2]; in assay [3]; at Interstitial collagenase) were 5.4 nM, less than 1 nM and greater than 5 µM, respectively. Inhibition in assay [1] was half-maximal at 9.8 nM (IC50).

Turning to `O=C(C[C@@H](Cc1cccc(O)c1)C(=O)N[C@H]1c2ccccc2C[C@H]1O)NO`, the IC50 in assay [1] came to 64 nM.

As to `O=C(C[C@@H](Cc1ccc(-c2ccccc2CO)cc1)C(=O)N[C@H]1c2ccccc2C[C@H]1O)NO`, the Ki in assay [2] is greater than 2000 nM; in assay [3], 500 nM; at Interstitial collagenase it was greater than 5 µM. Also, in assay [1], the IC50 was 144 nM.

On to `O=C(C[C@@H](Cc1ccc(-c2ccc3c(c2)OCO3)cc1)C(=O)N[C@H]1c2ccccc2C[C@H]1O)NO`, for which the results for the Ki (in assay [2]; in assay [3]; at Interstitial collagenase) were 309 nM, 43 nM and 12.8 µM, respectively. Moreover, half-maximal inhibition in assay [1] (IC50) required 1.5 nM.

For `Cc1ccccc1-c1ccc(C[C@H](CC(=O)NO)C(=O)N[C@H]2c3ccccc3C[C@H]2O)cc1`, the values for the Ki (in assay [2]; in assay [3]; at Interstitial collagenase) were 4.2 nM, less than 2.8 nM and 4.11 µM, respectively. The compound further displayed an IC50 in assay [1] of 11.6 nM.

Turning to `COc1cccc(-c2ccc(C[C@H](CC(=O)NO)C(=O)N[C@H]3c4ccccc4C[C@H]3O)cc2)c1`, the results for the Ki (in assay [2]; in assay [3]; on Interstitial collagenase) were 2.8 nM, less than 2.8 nM and greater than 5 µM, respectively. In addition, the IC50 in assay [1] worked out at 3.7 nM.

`COc1ccccc1-c1ccc(C[C@H](CC(=O)NO)C(=O)N[C@H]2c3ccccc3C[C@H]2O)cc1`: the midpoint of inhibition in assay [1], the IC50, lay at 3.4 nM. In other words, the single-digit nanomolar range.

Take `O=C(C[C@@H](Cc1ccc(-c2cccc(F)c2)cc1)C(=O)N[C@H]1c2ccccc2C[C@H]1O)NO`: in assay [1], the IC50 amounted to 2 nM.

In turn, `O=C(C[C@@H](Cc1ccc(-c2cccc([N+](=O)[O-])c2)cc1)C(=O)N[C@H]1c2ccccc2C[C@H]1O)NO` returned an IC50 in assay [1] of 5.5 nM. Compared with the last compound, the IC50 is about 2.8-fold higher.

In the case of `Cc1cccc(-c2ccc(C[C@H](CC(=O)NO)C(=O)N[C@H]3c4ccccc4C[C@H]3O)cc2)c1`, the inhibition constant (Ki) is 1080 nM in assay [2], 39 nM in assay [3] and greater than 5 µM on Interstitial collagenase. For the same compound, in assay [1], 11.5 nM corresponded to half-maximal inhibition (IC50).

On to `O=C(C[C@@H](Cc1ccc(-c2ccccc2Cl)cc1)C(=O)N[C@H]1c2ccccc2C[C@H]1O)NO`, for which the Ki in assay [2] was 150 nM; in assay [3] it was 27 nM; at Interstitial collagenase, greater than 5 µM. Moreover, in assay [1], the IC50 is 32 nM.

Turning to `O=C(C[C@@H](Cc1ccc(-c2ccccc2-c2nn[nH]n2)cc1)C(=O)N[C@H]1c2ccccc2C[C@H]1O)NO`, the inhibition constant (Ki) in assay [2] is 277 nM; in assay [3] it was 1130 nM; on Interstitial collagenase, greater than 5 µM. In assay [1], the IC50 was 239 nM.

For the compound `CC(C)c1cccc(-c2ccc(C[C@H](CC(=O)NO)C(=O)N[C@H]3c4ccccc4C[C@H]3O)cc2)c1`, in assay [1], the midpoint of inhibition, the IC50, lay at 216 nM.
